Measured values as given in patent US20260125375A1 (Pfizer Inc., priority 2022, published 2026).

Tests used:
C-CBL (residues 46-435) = target: T1, C-CBL (residues 46-435) (Homo sapiens, UniProt P22681); experiment: Ligand Displacement Assay (LDA), HTRF competitive binding against BODIPY-labeled fluorescent tracer, C-CBL; details: geometric mean of the number of tests, read-out: C-CBL Ki (nM) GMean
T1 construct: Purified CBL-B (residues 36-427) and C-CBL (residues 46-435) proteins from baculovirus-infected insect cells; made in house; host or cells: baculovirus-infected insect cells
T1 sequence (P22681 46-435): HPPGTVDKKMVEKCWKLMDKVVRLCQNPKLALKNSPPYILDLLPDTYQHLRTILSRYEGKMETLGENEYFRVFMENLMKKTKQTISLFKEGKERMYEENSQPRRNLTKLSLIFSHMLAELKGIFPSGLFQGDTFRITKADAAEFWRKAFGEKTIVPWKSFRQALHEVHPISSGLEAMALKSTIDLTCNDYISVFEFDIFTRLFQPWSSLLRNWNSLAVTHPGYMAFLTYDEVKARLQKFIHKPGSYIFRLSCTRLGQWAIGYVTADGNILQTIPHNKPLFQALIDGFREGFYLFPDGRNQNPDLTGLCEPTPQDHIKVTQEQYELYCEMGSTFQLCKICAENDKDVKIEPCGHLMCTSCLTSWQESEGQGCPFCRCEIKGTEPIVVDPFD
In short: (§1)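 Competition with a BODIPY fluorescent tracer was read by HTRF, each protein carrying an N-terminal biotinylated AviTag bound to Tb-streptavidin. Tracer KD values were set beforehand per protein; Ki derives from duplicate three-fold compound series ([…], 2% DMSO), averaged geometrically across tests.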

WT CBL-B (36-427) = target: T2, WT CBL-B (36-427) (Homo sapiens, UniProt Q13191); experiment: Surface Plasmon Resonance (SPR) assay, binding affinity and kinetics, CBL-B; details: SPR at 10° C., biotinylated WT CBL-B (36-427) on streptavidin chip; geometric mean; read-out: CBL-B SPR Kd (nM) GMean
T2 construct: N-terminal biotinylated WT CBL-B (36-427) and C-CBL (46-435) were captured on a streptavidin (SA) coated sensor chip
In short: (§2)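 SPR kinetics at 10° C, run either single-cycle (0.001–1 μM, 3-fold, 6 points, 120 s on, >5400 s off) or multi-cycle (10 points, 2-fold, top 10 or 100 μM, 90 s on). Proteins were N-biotinylated CBL-B (36-427) and C-CBL (46-435) on SA surfaces, in pH 7.2 HEPES, 2% DMSO.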

C-CBL (46-435) = target: T3, C-CBL (46-435) (Homo sapiens, UniProt P22681); experiment: Surface Plasmon Resonance (SPR) assay, binding affinity and kinetics, C-CBL; details: SPR at 10° C., biotinylated C-CBL (46-435) on streptavidin chip; geometric mean; read-out: C-CBL SPR Kd (nM) GMean
T3 construct: N-terminal biotinylated WT CBL-B (36-427) and C-CBL (46-435) were captured on a streptavidin (SA) coated sensor chip
T3 sequence (P22681 46-435): T1 sequence (P22681 46-435)
In short: as §2

CBL-B (residues 36-427) = target: T4, CBL-B (residues 36-427) (Homo sapiens, UniProt Q13191); experiment: Ligand Displacement Assay (LDA), HTRF competitive binding against BODIPY-labeled fluorescent tracer, CBL-B; details: geometric mean of the number of tests, read-out: CBL-B Ki (nM) GMean
T4 construct: Purified CBL-B (residues 36-427) and C-CBL (residues 46-435) proteins from baculovirus-infected insect cells; made in house; host or cells: baculovirus-infected insect cells
In short: as §1

Row | Structure (SMILES) | Ki (C-CBL (residues 46-435)) | Kd (WT CBL-B (36-427)) | Kd (C-CBL (46-435)) | Ki (CBL-B (residues 36-427))
1 | Cn1cnnc1[C@@H](c1cccc(-c2n[nH]c3c(CN[C@H]4CCC[C@H]4O)nc(C(F)(F)F)cc23)c1)C1CCC1 [Example C122, (1R,2S)-2-({[3-{3-[(R)-cyclobutyl(4-methyl-4H-1,2,4-triazol-3-yl)methyl]phenyl}-5-(trifluoromethyl)-1H-pyrazolo[3,4-c]pyridin-7-yl]methyl}amino)cyclopentan-1-ol] | 294 nM | 5.5 nM | 146 nM | 29.2 nM
2 | Cn1cnnc1[C@@H](c1cccc(-c2n[nH]c3c(CN[C@@H]4CC[C@H](O)C4)nc(C(F)(F)F)cc23)c1)C1CCC1 [Example D34] | 59.9 nM | 1.8 nM | 101 nM | 6.5 nM
3 | Cn1cnnc1[C@@H](c1cccc(-c2n[nH]c3c(CN[C@@H]4CC[C@@H](O)C4)nc(C(F)(F)F)cc23)c1)C1CCC1 [Example D35] | 100 nM | 4.4 nM | 152 nM | 12.9 nM
4 | CC(C)NCc1nc(C(F)(F)F)cc2c(-c3cccc([C@H](c4nncn4C)C4CCC4)c3)n[nH]c12 [Example D80] | 181 nM | 9.5 nM | 306 nM | 23 nM
5 | CCNCc1nc(C(F)(F)F)cc2c(-c3cccc([C@H](c4nncn4C)C4CCC4)c3)n[nH]c12 [Example D81] | 191 nM | 5.6 nM | 206 nM | 25.7 nM
6 | CN(C)Cc1nc(C(F)(F)F)cc2c(-c3cccc([C@H](c4nncn4C)C4CCC4)c3)n[nH]c12 [Example D82] | 258 nM | 8.7 nM | 213 nM | 32.5 nM
7 | Cn1cnnc1[C@@H](c1cccc(-c2n[nH]c3c(CN4CCC4)nc(C(F)(F)F)cc23)c1)C1CCC1 [Example D83] | 198 nM | 7.6 nM | 177 nM | 27.7 nM
8 | Cn1cnnc1[C@@H](c1cccc(-c2n[nH]c3c(CN4CCNCC4)nc(C(F)(F)F)cc23)c1)C1CCC1 [Example D84] | 144 nM | 5.6 nM | 148 nM | 21.9 nM
9 | Cn1cnnc1[C@@H](c1cccc(-c2n[nH]c3c(CNC4CCOCC4)nc(C(F)(F)F)cc23)c1)C1CCC1 [Example D85] | 237 nM | 6.9 nM | 241 nM | 23.4 nM
10 | Cn1cnnc1[C@@H](c1cccc(-c2n[nH]c3c(CN[C@H]4CC[C@H](O)C4)nc(C(F)(F)F)cc23)c1)C1CCC1 [Example D86] | 106 nM | 6.4 nM | 161 nM | 16.1 nM
11 | Cn1cnnc1[C@@H](c1cccc(-c2n[nH]c3c(CN[C@H]4CC[C@@H](O)C4)nc(C(F)(F)F)cc23)c1)C1CCC1 [Example D87] | 112 nM | 4.8 nM | 128 nM | 12.2 nM
12 | Cn1cnnc1[C@@H](c1cccc(-c2n[nH]c3c(CN4CCCC4)nc(C(F)(F)F)cc23)c1)C1CCC1 [Example D94] | 192 nM | 5.5 nM | 163 nM | 29.2 nM
13 | Cn1cnnc1[C@@H](c1cccc(-c2n[nH]c3c(CN4CCCCC4)nc(C(F)(F)F)cc23)c1)C1CCC1 [Example D95] | 360 nM | 6.5 nM | 226 nM | 40.7 nM
14 | Cn1cnnc1[C@@H](c1cccc(-c2n[nH]c3c(CN4CCOCC4)nc(C(F)(F)F)cc23)c1)C1CCC1 [Example D96] | 377 nM | 5.5 nM | 120 nM | 41.9 nM
15 | CN1CC[C@H](Oc2nc(C(F)(F)F)cc3c(-c4cccc(C5(Cc6nncn6C)COC5)c4)n[nH]c23)C1 [Example J1, 7-{[(3S)-1-methylpyrrolidin-3-yl]oxy}-3-(3-{3-[(4-methyl-4H-1,2,4-triazol-3-yl)methyl]oxetan-3-yl}phenyl)-5-(trifluoromethyl)-1H-pyrazolo[3,4-c]pyridine] | 58.1 nM | 4.3 nM | 36.7 nM | 13.5 nM
